Assay: Inhibitory concentration against Escherichia coli heat-labile enterotoxin (LT) binding to ganglioside GD1b was determined by ELISA assay

Compound	IC50
O=[N+]([O-])c1cccc(O[C@@H]2O[C@H](CO)[C@H](O)[C@H](O)[C@H]2O)c1	0.6 µM
O=C(O)[C@H](O)[C@@H](O)[C@H](O)[C@H](O)CO[C@@H]1O[C@H](CO)[C@H](O)[C@H](O)[C@H]1O	7 µM
O=C[C@H](O)[C@@H](O)[C@@H](O)[C@H](O)CO [GALACTOSE]	57 µM
OC[C@H]1O[C@@H](O[C@@H]2[C@@H](CO)O[C@](O)(CO)[C@H]2O)[C@H](O)[C@@H](O)[C@H]1O [LACTULOSE]	15 µM
OC[C@H]1O[C@@H](S[C@@H]2O[C@H](CO)[C@H](O)[C@H](O)[C@H]2O)[C@H](O)[C@@H](O)[C@H]1O [THIODIGALACTOSIDE]	4 µM
LACTOSE, ANHYDROUS	45 µM

From ChEMBL document CHEMBL1132211, “The role of waters in docking strategies with incremental flexibility for carbohydrate derivatives: heat-labile enterotoxin, a multivalent test case” (J Med Chem, 1999)
